Here are results for eleven compounds from ChEMBL document CHEMBL1201862, “PubChem BioAssay data set” (2004).

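Tested at 5 concentrations; 48 h exposure; 96-well plates; endpoints linearly interpolated, else capped at highest concentration. Abbreviation: GI50, concentration required for 50% inhibition of growth.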 The source made the active and inactive calls. Cut-off read from the data, not from the text of the source: active = GI50 up to about 1.1 µM and inactive = higher.

Some test systems named below: HCC 2998; U-251; SW-620; CCRF-CEM; COLO 205; TK-10; HL-60; Malme-3M; IGROV-1; MDA-N; HCT-15; OVCAR-3; A549; NCI-H522; OVCAR-8; SK-OV-3; SF-295; SK-MEL-5; NCI-H460; A498.
Common to all, as to experiment: inhibition of tumour cell growth, NCI panel, 48 h

On to `COC1CC(OC2C(C)OC(OC3C(C)OC(OC4C(C)OC(O[C@H]5CC[C@@]6(C)C(=CC[C@]7(O)[C@@H]6C[C@@H](OC(C)=O)[C@@]6(C)[C@]7(O)CC[C@@]6(O)C(C)=O)C5)CC4OC)CC3OC)CC2OC)OC(C)C1O` (stereo not given in full), for which the GI50 in the assay with HCC 2998, in the assay with U-251, in the assay with SW-620, in the assay on CCRF-CEM, in the assay on COLO 205 and in the assay with TK-10 was > 25 µM (inactive) throughout. The GI50 with HL-60 is > 25 µM (inactive); in the assay on Malme-3M, > 25 µM (inactive); in the assay on IGROV-1, > 25 µM (inactive); with MDA-N, > 25 µM (inactive); in the assay with HCT-15, above 25 µM; in the assay on OVCAR-3, > 25 µM (inactive). For the same compound, the GI50 in the assay on A549, with NCI-H522, with OVCAR-8, with SK-OV-3, with SF-295 and in the assay with SK-MEL-5 was > 25 µM (inactive) throughout.

`CCOC(=O)/C=C/CCC(C)(C)COC(C)=O`: the GI50 with HCC 2998, with U-251, in the assay on SW-620, in the assay on CCRF-CEM, in the assay with COLO 205 and with TK-10 was > 10 µM (inactive) in each case. The GI50 was > 10 µM (inactive) with HL-60; > 10 µM (inactive) in the assay on NCI-H460; > 10 µM (inactive) with IGROV-1; > 10 µM (inactive) in the assay on MDA-N; above 10 µM with HCT-15; > 10 µM (inactive) with OVCAR-3. For the same compound, the GI50 with A549, in the assay with NCI-H522, in the assay on OVCAR-8, in the assay with SK-OV-3, in the assay with SF-295 and in the assay on SK-MEL-5 was > 10 µM (inactive) each time.

On to `COc1ccc(-c2c3c(n(C4OC(COC(C)=O)C(OC(C)=O)C(OC(C)=O)C4OC(C)=O)c(=S)c2C#N)CCC3)cc1` (stereo not given), for which the GI50 with HCC 2998 was > 100 µM (inactive); with U-251, > 100 µM (inactive); in the assay on SW-620 it was > 100 µM (inactive); in the assay with CCRF-CEM, > 100 µM (inactive); in the assay with COLO 205, 86.9 µM (inactive); in the assay on TK-10, > 100 µM (inactive). The GI50 with HL-60 is > 100 µM (inactive); with NCI-H460, > 100 µM (inactive); in the assay with Malme-3M it was > 100 µM (inactive); with IGROV-1 it was > 100 µM (inactive); with MDA-N, > 100 µM (inactive); in the assay with HCT-15, above 100 µM. For the same compound, the GI50 in the assay on OVCAR-3 is > 100 µM (inactive); in the assay with A549, > 100 µM (inactive); in the assay on SK-OV-3 it was > 100 µM (inactive); in the assay with SF-295, > 100 µM (inactive); in the assay on SK-MEL-5 it was 38.8 µM (inactive).

For `CCc1cc2c(oc3c4ccccc4ccc23)c(=O)[nH]1`, the GI50 with U-251, with SW-620, in the assay on CCRF-CEM, with TK-10, with HL-60 and with NCI-H460 was > 10 µM (inactive) throughout. Further, the GI50 in the assay with IGROV-1, with MDA-N, in the assay on OVCAR-3, with A549, in the assay with NCI-H522 and in the assay on OVCAR-8 was > 10 µM (inactive) throughout. In addition, the GI50 in the assay with SK-OV-3 and with SF-295 was > 10 µM (inactive) in each case.

Turning to `ClCc1nc2cc(Cl)ccc2o1`, the GI50 in the assay with HCC 2998 is 2.26 µM (inactive); in the assay with U-251 it was 3.15 µM (inactive); in the assay with SW-620, 3.49 µM (inactive); in the assay with CCRF-CEM it was 1.96 µM (inactive); in the assay with COLO 205, 2.65 µM (inactive); in the assay with TK-10 it was 2.83 µM (inactive). Further, the GI50 in the assay on HL-60 is 2.49 µM (inactive); in the assay with NCI-H460, 12.5 µM (inactive); in the assay on Malme-3M it was 11.5 µM (inactive); with IGROV-1 it was 1.61 µM (inactive); with MDA-N, 5.71 µM (inactive); in the assay with HCT-15, 3.39 µM. Moreover, the GI50 in the assay with OVCAR-3 was 1.85 µM (inactive); in the assay with A549 it was 17 µM (inactive); with NCI-H522 it was 1.6 µM (inactive); in the assay with OVCAR-8, 4.91 µM (inactive); with SK-OV-3 it was 14.8 µM (inactive); in the assay with SF-295 it was 20.3 µM (inactive). Further, in the assay with SK-MEL-5, the GI50 was 11.9 µM (inactive).

Regarding `COC(=O)C1(c2cc3ccccc3n2S(=O)(=O)c2ccccc2)CC2C=CC1NC2` (stereo not given), the GI50 in the assay with HCC 2998 was 1.98 µM (inactive); in the assay with U-251 it was 1.43 µM (inactive); in the assay on SW-620, 2.91 µM (inactive); with CCRF-CEM, 0.735 µM (active); in the assay on COLO 205 it was 2.17 µM (inactive); in the assay on TK-10, 2.28 µM (inactive). Besides, the GI50 in the assay with HL-60 was 1.94 µM (inactive); in the assay on NCI-H460, 3.11 µM (inactive); in the assay with IGROV-1, 1.34 µM (inactive); in the assay on MDA-N, 2.13 µM (inactive); in the assay with HCT-15 it was 1.75 µM; with OVCAR-3, 2.29 µM (inactive). Moreover, the GI50 in the assay on A498 was 3.09 µM (inactive); in the assay on A549, 2.96 µM (inactive); in the assay on OVCAR-8 it was 1.95 µM (inactive); in the assay on SK-OV-3, 3.41 µM (inactive); with SF-295 it was 2.91 µM (inactive); in the assay on SK-MEL-5 it was 6.12 µM (inactive).

On to `COc1ccc(C[C@H]2COC(=O)[C@@H]2Cc2ccc(Br)cc2)cc1OC`, for which the GI50 with HCC 2998 was 28.3 µM (inactive); with U-251, 35 µM (inactive); in the assay with SW-620, 44.7 µM (inactive); in the assay on CCRF-CEM, 18.9 µM (inactive); in the assay on COLO 205, 21.2 µM (inactive); in the assay on TK-10 it was 28.6 µM (inactive). For the same compound, the GI50 was 20.4 µM (inactive) in the assay on HL-60; 33.4 µM (inactive) in the assay on NCI-H460; 25.4 µM (inactive) in the assay with Malme-3M; 16.1 µM (inactive) in the assay with IGROV-1; 27.7 µM (inactive) in the assay with MDA-N; 17.3 µM in the assay with HCT-15. The GI50 is 15.2 µM (inactive) with OVCAR-3; 20 µM (inactive) with A549; 13.7 µM (inactive) with NCI-H522; 30.7 µM (inactive) in the assay on OVCAR-8; 22 µM (inactive) with SK-OV-3; 14.5 µM (inactive) in the assay on SF-295. In addition, the GI50 in the assay with SK-MEL-5 is 5.06 µM (inactive).

For `CN1CNc2nc(N)n(C)c(=O)c2C1`, the GI50 in the assay on HCC 2998, in the assay on U-251, in the assay on CCRF-CEM, with TK-10, in the assay with HL-60 and in the assay on NCI-H460 was > 10 µM (inactive) throughout. The GI50 with Malme-3M is > 10 µM (inactive); in the assay on IGROV-1, > 10 µM (inactive); with MDA-N, > 10 µM (inactive); with HCT-15, above 10 µM; with OVCAR-3, > 10 µM (inactive); with A549 it was > 10 µM (inactive). Besides, the GI50 in the assay with NCI-H522, with OVCAR-8, in the assay on SK-OV-3 and with SF-295 was > 10 µM (inactive) each time.

For the compound `Cc1ccc(CC[PH](=O)CCc2ccc(C)nc2)cn1`, the GI50 with HCC 2998, in the assay with U-251, in the assay on SW-620, with CCRF-CEM, in the assay on COLO 205 and in the assay on TK-10 was > 100 µM (inactive) each time. Further, the GI50 in the assay on HL-60 is > 100 µM (inactive); with NCI-H460, > 100 µM (inactive); in the assay with Malme-3M it was > 100 µM (inactive); in the assay with IGROV-1, > 100 µM (inactive); in the assay with MDA-N it was > 100 µM (inactive); with HCT-15, above 100 µM. Moreover, the GI50 in the assay with OVCAR-3, in the assay with NCI-H522, with OVCAR-8, in the assay on SK-OV-3, in the assay on SF-295 and in the assay with SK-MEL-5 was > 100 µM (inactive) throughout.

Turning to `COC1OC(C(=O)O)C2OC(C)(C)OC12` (stereo not given), the GI50 in the assay on HCC 2998, in the assay with U-251, in the assay on SW-620, with CCRF-CEM, in the assay on COLO 205 and in the assay on TK-10 was > 100 µM (inactive) in each case. The GI50 with NCI-H460 was > 100 µM (inactive); in the assay with Malme-3M it was > 100 µM (inactive); in the assay with IGROV-1, > 100 µM (inactive); with MDA-N, > 100 µM (inactive); with HCT-15, above 100 µM; in the assay with OVCAR-3, > 100 µM (inactive). The GI50 in the assay on A549, in the assay with NCI-H522, in the assay with OVCAR-8, in the assay on SK-OV-3, with SF-295 and with SK-MEL-5 was > 100 µM (inactive) throughout.

Consider `CC1=Nc2c(C#N)ncn2N=C(C)C1`, for which the GI50 in the assay with U-251 was > 100 µM (inactive); in the assay on SW-620, > 100 µM (inactive); in the assay on CCRF-CEM, 70.5 µM (inactive); in the assay with COLO 205 it was > 100 µM (inactive); with TK-10 it was > 100 µM (inactive); in the assay on HL-60, > 100 µM (inactive). Besides, the GI50 with NCI-H460, in the assay on IGROV-1, with MDA-N, in the assay on OVCAR-3, with A498 and in the assay on A549 was > 100 µM (inactive) each time. In addition, the GI50 with SK-OV-3 is 49 µM (inactive); in the assay on SF-295, > 100 µM (inactive); in the assay with SK-MEL-5, > 100 µM (inactive).
